Data: patent US9738634B2, “Heterocyclic amide compound and herbicide” (SYNGENTA PARTICIPATIONS AG, priority 2013, dated 2017)

Columns and labels:
Format in all cases: in vivo
[1] = system: bulrush; assay: Test Example 2: weedkilling efficacy, growth period weed treatment in the submerged state; B: bulrush; conditions: treatment dosage 252 g/ha
Outline: (§1)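 Weeds treated at the 1-2 leaf stage by application of diluted emulsion onto floodwater (4 cm depth, alluvial soil) at specified g/ha. Grown in greenhouse at 25 to 30° C; herbicidal effect rated three weeks after treatment.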

[2] = system: beet; assay: Test Example 4: foliar treatment, effect on crop; f: beet; conditions: treatment dosage 315 g/ha
Outline: (§2)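 Seeds are spot-sown into sterilized diluvial soil and covered with about 1.5 cm of soil. After 14 days' greenhouse growth at 25 to 30° C, plants are sprayed on stems and leaves with diluted emulsion at the stated g/ha rate, then scored at 3 weeks.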

[3] = system: barnyard grass; assay: Test Example 1: weedkilling efficacy, preemergent weed treatment in the submerged state; A: barnyard grass; conditions: treatment dosage 252 g/ha
Outline: (§3)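 Pre-emergence application onto floodwater (4 cm, alluvial soil) on the day of sowing, dose expressed as g/ha from diluted emulsion formulation. Weeds sown with 2.5-leaf transplanted rice as crop; plants held at 25–30 °C in greenhouse and scored against assessment criteria after 3 weeks.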

[4] = system: corn; assay: Test Example 3: soil treatment, effect on crop; c: corn; conditions: treatment dosage 315 g/ha
Outline: (§4)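 Crop and weed responses were judged three weeks after a uniform surface spray of the water-diluted emulsion at the given g/ha rate. Seeds sat beneath about 1.5 cm of sterilized diluvial soil, and boxes stood in a greenhouse at 25 to 30° C.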

[5] = system: catchweed; assay: Test Example 3: weedkilling efficacy through soil treatment; O: catchweed; conditions: treatment dosage 315 g/ha
Outline: as §4

[6] = system: wild oat; assay: Test Example 3: weedkilling efficacy through soil treatment; G: wild oat; conditions: treatment dosage 315 g/ha
Outline: as §4

[7] = system: Indian mallow; assay: Test Example 3: weedkilling efficacy through soil treatment; K: Indian mallow; conditions: treatment dosage 315 g/ha
Outline: as §4

[8] = system: crabgrass; assay: Test Example 3: weedkilling efficacy through soil treatment; D: crabgrass; conditions: treatment dosage 315 g/ha
Outline: as §4

[9] = system: green foxtail; assay: Test Example 3: weedkilling efficacy through soil treatment; E: green foxtail; conditions: treatment dosage 315 g/ha
Outline: as §4

[10] = system: catchweed; assay: Test Example 4: weedkilling efficacy by foliar treatment; O: catchweed; conditions: treatment dosage 315 g/ha
Outline: as §2

[11] = system: crabgrass; assay: Test Example 4: weedkilling efficacy by foliar treatment; D: crabgrass; conditions: treatment dosage 315 g/ha
Outline: as §2

[12] = system: oval-leafed pondweed; assay: Test Example 2: weedkilling efficacy, growth period weed treatment in the submerged state; C: oval-leafed pondweed; conditions: treatment dosage 252 g/ha
Outline: as §1

[13] = system: fig-leafed goosefoot; assay: Test Example 3: weedkilling efficacy through soil treatment; M: fig-leafed goosefoot; conditions: treatment dosage 315 g/ha
Outline: as §4

[14] = system: Italian ryegrass; assay: Test Example 3: weedkilling efficacy through soil treatment; I: Italian ryegrass; conditions: treatment dosage 315 g/ha
Outline: as §4

[15] = system: redroot pigweed; assay: Test Example 4: weedkilling efficacy by foliar treatment; L: redroot pigweed; conditions: treatment dosage 315 g/ha
Outline: as §2

[16] = system: chickweed; assay: Test Example 3: weedkilling efficacy through soil treatment; N: chickweed; conditions: treatment dosage 315 g/ha
Outline: as §4

[17] = system: black-grass; assay: Test Example 3: weedkilling efficacy through soil treatment; H: black-grass; conditions: treatment dosage 315 g/ha
Outline: as §4

[18] = system: chickweed; assay: Test Example 4: weedkilling efficacy by foliar treatment; N: chickweed; conditions: treatment dosage 315 g/ha
Outline: as §2

[19] = system: green foxtail; assay: Test Example 4: weedkilling efficacy by foliar treatment; E: green foxtail; conditions: treatment dosage 315 g/ha
Outline: as §2

[20] = system: oval-leafed pondweed; assay: Test Example 1: weedkilling efficacy, preemergent weed treatment in the submerged state; C: oval-leafed pondweed; conditions: treatment dosage 252 g/ha
Outline: as §3

[21] = system: birds-eye speedwell; assay: Test Example 4: weedkilling efficacy by foliar treatment; p: birds-eye speedwell; conditions: treatment dosage 315 g/ha
Outline: as §2

[22] = system: wheat; assay: Test Example 3: soil treatment, effect on crop; e: wheat; conditions: treatment dosage 315 g/ha
Outline: as §4

[23] = system: bulrush; assay: Test Example 1: weedkilling efficacy, preemergent weed treatment in the submerged state; B: bulrush; conditions: treatment dosage 252 g/ha
Outline: as §3

[24] = system: redroot pigweed; assay: Test Example 3: weedkilling efficacy through soil treatment; L: redroot pigweed; conditions: treatment dosage 315 g/ha
Outline: as §4

[25] = system: black-grass; assay: Test Example 4: weedkilling efficacy by foliar treatment; H: black-grass; conditions: treatment dosage 315 g/ha
Outline: as §2

[26] = system: wild oat; assay: Test Example 4: weedkilling efficacy by foliar treatment; G: wild oat; conditions: treatment dosage 315 g/ha
Outline: as §2

[27] = system: soybean; assay: Test Example 4: foliar treatment, effect on crop; d: soybean; conditions: treatment dosage 315 g/ha
Outline: as §2

[28] = system: directly sown rice; assay: Test Example 3: soil treatment, effect on crop; b: directly sown rice; conditions: treatment dosage 315 g/ha
Outline: as §4

[29] = system: soybean; assay: Test Example 3: soil treatment, effect on crop; d: soybean; conditions: treatment dosage 315 g/ha
Outline: as §4

[30] = system: beet; assay: Test Example 3: soil treatment, effect on crop; f: beet; conditions: treatment dosage 315 g/ha
Outline: as §4

[31] = system: directly sown rice; assay: Test Example 4: foliar treatment, effect on crop; b: directly sown rice; conditions: treatment dosage 315 g/ha
Outline: as §2

[32] = system: corn; assay: Test Example 4: foliar treatment, effect on crop; c: corn; conditions: treatment dosage 315 g/ha
Outline: as §2

[33] = system: transplanted rice; assay: Test Example 1: preemergent weed treatment in the submerged state, effect on crop; a: transplanted rice; conditions: treatment dosage 252 g/ha
Outline: as §3

[34] = system: birds-eye speedwell; assay: Test Example 3: weedkilling efficacy through soil treatment; p: birds-eye speedwell; conditions: treatment dosage 315 g/ha
Outline: as §4

[35] = system: Indian mallow; assay: Test Example 4: weedkilling efficacy by foliar treatment; K: Indian mallow; conditions: treatment dosage 315 g/ha
Outline: as §2

[36] = system: fig-leafed goosefoot; assay: Test Example 4: weedkilling efficacy by foliar treatment; M: fig-leafed goosefoot; conditions: treatment dosage 315 g/ha
Outline: as §2

[37] = system: wheat; assay: Test Example 4: foliar treatment, effect on crop; e: wheat; conditions: treatment dosage 315 g/ha
Outline: as §2

[38] = system: barnyard grass; assay: Test Example 2: weedkilling efficacy, growth period weed treatment in the submerged state; A: barnyard grass; conditions: treatment dosage 252 g/ha
Outline: as §1

[39] = system: Italian ryegrass; assay: Test Example 4: weedkilling efficacy by foliar treatment; I: Italian ryegrass; conditions: treatment dosage 315 g/ha
Outline: as §2

CC1=C(c2cccnc2F)C(=O)N(C(C)(C)C(=O)Nc2cc(Br)ccn2)CO1 [B-2-09]
B (bulrush) weedkilling efficacy grade [1]: 5 (weed kill ratio 90% or more, (practically complete withering)) | f (beet) effect on crop grade [2]: 1 (weed kill ratio 5% or more, less than 20%) | A (barnyard grass) weedkilling efficacy grade [3]: 5 (weed kill ratio 90% or more, (practically complete withering)) | c (corn) effect on crop grade [4]: 0 (weed kill ratio 5% or less (practically no effect)) | O (catchweed) weedkilling efficacy grade [5]: 3 (weed kill ratio 40% or more, less than 70%) | G (wild oat) weedkilling efficacy grade [6]: 3 (weed kill ratio 40% or more, less than 70%) | K (Indian mallow) weedkilling efficacy grade [7]: 0 (weed kill ratio 5% or less (practically no effect)) | D (crabgrass) weedkilling efficacy grade [8]: 5 (weed kill ratio 90% or more, (practically complete withering)) | E (green foxtail) weedkilling efficacy grade [9]: 5 (weed kill ratio 90% or more, (practically complete withering)) | O (catchweed) weedkilling efficacy grade [10]: 1 (weed kill ratio 5% or more, less than 20%) | D (crabgrass) weedkilling efficacy grade [11]: 5 (weed kill ratio 90% or more, (practically complete withering)) | C (oval-leafed pondweed) weedkilling efficacy grade [12]: 3 (weed kill ratio 40% or more, less than 70%) | M (fig-leafed goosefoot) weedkilling efficacy grade [13]: 3 (weed kill ratio 40% or more, less than 70%) | I (Italian ryegrass) weedkilling efficacy grade [14]: 5 (weed kill ratio 90% or more, (practically complete withering)) | L (redroot pigweed) weedkilling efficacy grade [15]: 0 (weed kill ratio 5% or less (practically no effect)) | N (chickweed) weedkilling efficacy grade [16]: 2 (weed kill ratio 20% or more, less than 40%) | H (black-grass) weedkilling efficacy grade [17]: 4 (weed kill ratio 70% or more, less than 90%) | N (chickweed) weedkilling efficacy grade [18]: 3 (weed kill ratio 40% or more, less than 70%) | E (green foxtail) weedkilling efficacy grade [19]: 5 (weed kill ratio 90% or more, (practically complete withering)) | C (oval-leafed pondweed) weedkilling efficacy grade [20]: 5 (weed kill ratio 90% or more, (practically complete withering)) | P (birds-eye speedwell) weedkilling efficacy grade [21]: 4 (weed kill ratio 70% or more, less than 90%) | e (wheat) effect on crop grade [22]: 0 (weed kill ratio 5% or less (practically no effect)) | B (bulrush) weedkilling efficacy grade [23]: 5 (weed kill ratio 90% or more, (practically complete withering)) | L (redroot pigweed) weedkilling efficacy grade [24]: 0 (weed kill ratio 5% or less (practically no effect)) | H (black-grass) weedkilling efficacy grade [25]: 4 (weed kill ratio 70% or more, less than 90%) | G (wild oat) weedkilling efficacy grade [26]: 0 (weed kill ratio 5% or less (practically no effect)) | d (soybean) effect on crop grade [27]: 0 (weed kill ratio 5% or less (practically no effect)) | b (directly sown rice) effect on crop grade [28]: 3 (weed kill ratio 40% or more, less than 70%) | d (soybean) effect on crop grade [29]: 0 (weed kill ratio 5% or less (practically no effect)) | f (beet) effect on crop grade [30]: 1 (weed kill ratio 5% or more, less than 20%) | b (directly sown rice) effect on crop grade [31]: 5 (weed kill ratio 90% or more, (practically complete withering)) | c (corn) effect on crop grade [32]: 0 (weed kill ratio 5% or less (practically no effect)) | a (transplanted rice) effect on crop grade [33]: 1 (weed kill ratio 5% or more, less than 20%) | P (birds-eye speedwell) weedkilling efficacy grade [34]: 4 (weed kill ratio 70% or more, less than 90%) | K (Indian mallow) weedkilling efficacy grade [35]: 0 (weed kill ratio 5% or less (practically no effect)) | M (fig-leafed goosefoot) weedkilling efficacy grade [36]: 4 (weed kill ratio 70% or more, less than 90%) | e (wheat) effect on crop grade [37]: 0 (weed kill ratio 5% or less (practically no effect)) | A (barnyard grass) weedkilling efficacy grade [38]: 4 (weed kill ratio 70% or more, less than 90%) | I (Italian ryegrass) weedkilling efficacy grade [39]: 4 (weed kill ratio 70% or more, less than 90%)
